# Data published in patent US20110233810A1, “ANTIMICROBIAL PLASTIC COMPOSITIONS AND METHODS FOR PREPARING SAME” (W. M. Barr & Company, priority 2010, published 2011).
# Columns and labels:
# [1] = monomeric form; cited from earlier work
# Rat = settings: cited from earlier work
# Rabbit = settings: cited from earlier work
# [2] = heavy gauge vinyl pool liner and film of vinyl baby pants; cited from earlier work
# Staphylococcus aureus = assay: Zone of Inhibition testing AATCC-147 (modified), pellets in agar; format: cell-based; settings: text summary of Table VIII
# Protocol: A set of AETs run measured Zone of Inhibition, ZOI (AATCC-147) and pellets from runs 1 to 5 were used. Pellets were placed in an agar growth medium that had been streaked with parallel lines of Staphylococcus aureus and incubated for 24 hours at 37° C. The final plates were photographed and measured for length of ZOI in mm.
compound,measurement,setting,value
"CCCCCCCCCCCCCCCCCC[N+](C)(C)CCC[Si](OC)(OC)OC.[Cl-] [Ref #1, 3-(trimethoxysilyl) propyl-N-octadecyl-N,N-dimethyl ammonium chloride]",Vapor pressure,[1],5.8 × 10^−14 mmHg
"c1ccc2c(c1)Oc1ccccc1[As]2O[As]1c2ccccc2Oc2ccccc21 [OBPA, 10,10′-oxybisphenoxarsine]",Oral LD50,Rat,37 mg/kg
same,Dermal LD50,Rabbit,121 mg/kg
same,Leaching from plastics,[2],leaches very slowly
"Oc1cc(Cl)ccc1Oc1ccc(Cl)cc1Cl [TRICLOSAN, 2,4,4′-trichloro-2′-hydroxy diphenol ether]",ZOI (in words),Staphylococcus aureus,significant ZOI
